From patent US9018258B2, “Substituted 1-benzylcycloalkylcarboxylic acids and the use thereof” (Bayer Intellectual Property GmbH, priority 2010, dated 2015) come the findings set out here.

This assay has as its target T1, Haem-free sGC (Rattus norvegicus, UniProt P20595).
T1 construct: made in house; host or cells: Sf9 insect cells (baculovirus)
As to the kind of experiment: Stimulation of recombinant soluble guanylate cyclase (sGC) in vitro, haem-free enzyme. The format is biochemical. On the procedure:
Investigations on the stimulation of recombinant soluble guanylate cyclase (sGC) by the compounds according to the invention with and without sodium nitroprusside, and with and without the haem-dependent sGC inhibitor 1H-1,2,4-oxadiazolo[4,3a]quinoxalin-1-one (ODQ), are carried out by the method described in detail in the following reference: M. Hoenicka, E. M. Becker, H. Apeler, T. Sirichoke, H. Schroeder, R. Gerzer and J.-P. Stasch, “Purified soluble guanylyl cyclase expressed in a baculovirus/Sf9 system: Stimulation by YC-1, nitric oxide, and carbon oxide”, J. Mol. Med. 77 (1999), 14-23. The haem-free guanylate cyclase is obtained by adding Tween 20 to the sample buffer (0.5% in the final concentration).
The activation of sGC by a test substance is reported as x-fold stimulation of the basal activity.

T1 sequence (P19686 whole entry partner): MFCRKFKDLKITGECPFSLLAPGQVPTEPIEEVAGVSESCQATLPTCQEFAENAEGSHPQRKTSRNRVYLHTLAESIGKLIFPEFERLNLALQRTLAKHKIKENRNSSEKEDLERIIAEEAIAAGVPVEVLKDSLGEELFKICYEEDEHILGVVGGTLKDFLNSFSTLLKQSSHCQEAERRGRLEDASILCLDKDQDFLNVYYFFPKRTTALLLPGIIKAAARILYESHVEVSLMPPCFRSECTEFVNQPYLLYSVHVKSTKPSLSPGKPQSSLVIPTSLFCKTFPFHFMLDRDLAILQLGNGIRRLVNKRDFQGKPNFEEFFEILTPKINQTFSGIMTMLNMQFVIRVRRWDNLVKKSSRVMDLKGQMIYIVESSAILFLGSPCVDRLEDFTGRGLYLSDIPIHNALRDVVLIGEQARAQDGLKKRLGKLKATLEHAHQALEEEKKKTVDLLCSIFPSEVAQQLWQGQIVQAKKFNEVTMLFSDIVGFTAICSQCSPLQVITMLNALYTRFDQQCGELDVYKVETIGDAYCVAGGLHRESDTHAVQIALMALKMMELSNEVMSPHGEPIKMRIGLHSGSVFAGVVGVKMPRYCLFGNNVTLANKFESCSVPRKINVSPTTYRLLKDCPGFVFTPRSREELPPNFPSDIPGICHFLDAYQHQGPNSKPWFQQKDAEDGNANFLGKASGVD
T1 sequence (P20595 whole entry): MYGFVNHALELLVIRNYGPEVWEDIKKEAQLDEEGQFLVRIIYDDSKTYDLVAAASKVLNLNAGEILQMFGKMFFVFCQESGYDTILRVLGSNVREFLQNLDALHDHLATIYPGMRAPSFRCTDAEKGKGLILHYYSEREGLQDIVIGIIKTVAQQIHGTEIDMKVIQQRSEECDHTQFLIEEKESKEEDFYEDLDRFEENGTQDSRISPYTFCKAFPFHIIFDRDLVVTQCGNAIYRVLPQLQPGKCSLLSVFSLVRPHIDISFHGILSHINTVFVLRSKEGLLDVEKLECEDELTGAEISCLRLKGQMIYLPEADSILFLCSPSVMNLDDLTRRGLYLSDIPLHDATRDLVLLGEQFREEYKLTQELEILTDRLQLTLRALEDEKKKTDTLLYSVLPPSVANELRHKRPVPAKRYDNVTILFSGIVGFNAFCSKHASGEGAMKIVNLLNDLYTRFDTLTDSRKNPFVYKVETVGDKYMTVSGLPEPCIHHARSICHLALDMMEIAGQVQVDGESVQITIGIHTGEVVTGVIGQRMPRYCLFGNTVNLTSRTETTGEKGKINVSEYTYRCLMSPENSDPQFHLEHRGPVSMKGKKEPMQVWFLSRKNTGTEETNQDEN

For the molecule `[2H]C([2H])([2H])OC(c1ccc(Cl)c(NC(=O)[C@H](c2ccc(Cl)cc2)[C@@H](C)C(F)(F)F)c1)C1(C(=O)O)CC1` (single isomer, unassigned; (+)) [Example 99], the “Stimulation (x-fold) of recombinant sGC, Basal” value was determined as 2.0 ± 0.4 x-fold (test substance 0.01 μM), 5.2 ± 0.8 x-fold (test substance 0.1 μM), 14.9 ± 2.2 x-fold (test substance 1.0 μM) and 19.4 ± 2.8 x-fold (test substance 10 μM).
Take `C[C@H]([C@H](C(=O)Nc1cc(CC2(C(=O)O)CC2)ccc1Cl)c1ccc(Cl)cc1)C(F)(F)F` [Example 50, (+)-1-(4-Chloro-3-{[(2S,3R)-2-(4-chlorophenyl)-4,4,4-trifluoro-3-methylbutanoyl]amino}benzyl)-cyclopropanecarboxylic acid]: the “Stimulation (x-fold) of recombinant sGC, Basal” value is 2.6 ± 0.8 x-fold (test substance 0.01 μM); 7.1 ± 2.4 x-fold (test substance 0.1 μM); 27.2 ± 7.4 x-fold (test substance 1.0 μM); 41.2 ± 9.8 x-fold (test substance 10 μM); 39.0 ± 9.1 x-fold (test substance 100 μM).
